Test results: patent US9144569B2, “Methods of administering an aromatase inhibitor, prostaglandin and GnRH for regulating ovulation in cattle” (UNIVERSITY OF SASKATCHEWAN, priority 2010, dated 2015)
Marks after values point to notes of the source that are not given here.

What was measured:
Type in all cases: in vivo, cattle
plasma FSH = test: Example I: plasma FSH by double-antibody radioimmunoassay after single iv dose; settings: by 72 hours after single iv dose, doses combined; P<0.03
Protocol: Heifers in which a CL was detected during the initial examination were given […] cloprostenol (PGF, Estrumate™, Schering-Plough Animal Health, Pointe-Claire, QC, Canada) intramuscularly (im) to induce regression of the CL and to synchronize ovulation. Heifers were examined daily by transrectal ultrasonography to detect ovulation. Transvaginal ultrasound-guided follicular aspiration of follicles ≧5 mm was performed five to eight days after ovulation to synchronize wave emergence. Heifers were examined daily by transrectal ultrasonography to detect follicular wave emergence, which was expected 1 to 1.5 days after follicular ablation. […] For practical purposes, the dose of letrozole was calculated based on an average weight of 400 kg for all heifers. […]
Statistical analyses were done using the Statistical Analysis System software package (SAS Learning Edition 9.1, 2006; SAS Institute Inc., Cary, N.C., USA). Time-series hormone data, plasma letrozole concentration, and follicular diameter profiles were analyzed by repeated measures, using the PROC MIXED procedure. […]

plasma LH [1] = test: Example III: plasma LH after letrozole IV or IM; settings: 1 mg/kg IV or IM vs placebo
Protocol: Ovarian cyclicity in heifers was synchronized using transvaginal ultrasound-guided follicular ablation followed by a double dose of PGF 4 days after ablation. The ovaries were examined daily by transrectal ultrasonography to detect ovulation. Three days after ovulation, heifers were assigned randomly to four treatment groups and given letrozole at a dose of 1 mg/kg intravenously (in benzyl alcohol, n=10) or intramuscularly (in benzyl alcohol plus canola oil 1:1 v/v, n=10), or given a placebo intravenously (benzyl alcohol, n=5) or intramuscularly (benzyl alcohol plus canola oil 1:1 v/v, n=5). Ovarian structures were monitored by ultrasonography and blood samples were collected by jugular venipuncture twice daily from pre-treatment to post-treatment ovulations. Comparisons among groups were made by one-way ANOVA for single-point measurements and by ANOVA for repeated measures for time-series data.
Blood samples collected daily from treatment to post-treatment ovulation.
Endpoints are: Follicular diameter profiles; CL diameter profile; Circulating progesterone concentration; Circulating FSH and LH profiles; Letrozole profile and bioavailability; Circulating estradiol concentration Follicular fluid estradiol concentration).

plasma LH [2] = test: Example I: plasma LH by double-antibody radioimmunoassay after single iv dose; settings: for plasma LH concentrations compared to saline-treated controls: doses combined
Protocol: (§1) Heifers in which a CL was detected during the initial examination were given […] cloprostenol (PGF, Estrumate™, Schering-Plough Animal Health, Pointe-Claire, QC, Canada) intramuscularly (im) to induce regression of the CL and to synchronize ovulation. Heifers were examined daily by transrectal ultrasonography to detect ovulation. Transvaginal ultrasound-guided follicular aspiration of follicles ≧5 mm was performed five to eight days after ovulation to synchronize wave emergence. Heifers were examined daily by transrectal ultrasonography to detect follicular wave emergence, which was expected 1 to 1.5 days after follicular ablation. Four days after follicular ablation (approximately 2.5 days after follicular wave emergence), and at the time follicular dominance becomes apparent, heifers were assigned randomly to the following treatment groups and given a single intravenous dose of 1) 500 μg/kg of letrozole (high dose group, n=9), 2) 250 μg/kg of letrozole (medium dose group, n=10), 3) 125 μg/kg of letrozole (low dose group, n=10), or 4) 20 ml of phosphate buffered saline (PBS control group, n=10). For practical purposes, the dose of letrozole was calculated based on an average weight of 400 kg for all heifers. The average oral dose used in women (2.5-5 mg per day for 5 days) was used to estimate the medium dose for cattle. The high and low doses were set as double and half the medium dose, respectively. The day of treatment was defined as Day 0. For intravenous injection, letrozole was prepared in 95% ethanol at a final concentration of 5 mg per ml, resulting in an injection volume of 10-40 ml. The experiment was performed in four replicates (n=2-3 per group per replicate) and each heifer was used only once.
(§2) Statistical analyses were done using the Statistical Analysis System software package (SAS Learning Edition 9.1, 2006; SAS Institute Inc., Cary, N.C., USA). Time-series hormone data, plasma letrozole concentration, and follicular diameter profiles were analyzed by repeated measures, using the PROC MIXED procedure. The main effects were treatment (high, medium and low dose, and control), time, and their interactions.

heifers = test: Example IV: intravaginal device containing 1 g letrozole in heifers, ovulation and ovarian structures
Protocol: To test the hypothesis that letrozole treatment during the preovulatory stage, initiated prior to onset of follicular selection and prolonged for a 7-day period will be able to induce the development of more than one follicle to a preovulatory size and to delay the occurrence of ovulation. To develop a practical route of administration of letrozole in cattle.
Five to eight days after PGF-induced ovulation, FA was performed followed by a double dose of PGF 60 and 72 hr later. Heifers were randomly divided into two groups and received from Day 1 (Day 0=wave emergence) until Day 7 or until ovulation is detected: • intravaginal device containing 1 g of letrozole (n=15) • Intravaginal blank device (letrozole free, n=15)
Transrectal ultrasound examination and blood sample collection were performed daily from day of ablation until Day 12 post-ovulation. blood samples were collected frequently at the time of catheter placement, at 0, 10, 20, 30 min, 1, 1.5, 2, 3, 4, 6, 8, 12 and 24 hours post-treatment

[3] = test system: Hereford-cross beef heifers; test: Example I: single intravenous dose of letrozole in heifers, ovarian ultrasonography (follicle and CL dynamics)
Protocol: Hereford-cross beef heifers, 14 to 20 months of age and weighing between 295 and 450 kg, were chosen from a herd of 50 heifers maintained in outdoor corrals at the University of Saskatchewan Goodale Research Farm (52° North and 106° West). Heifers were fed alfalfa/grass hay and grain to gain approximately 1.3 Kg per day and had water ad libitum during the experimental period from July to October. Heifers were initially examined by transrectal ultrasonography (7.5 MHz linear-array transducer, Aloka SSD-900; Tokyo, Japan) to confirm that they were postpubertal by observing the presence of a CL [33].
as §1
The observations from ultrasound examination were recorded on a sketch sheet in which each ovary and its structures (CL and follicles ≧4 mm in diameter) were represented in size and location. Ovulation was defined as the disappearance of any follicle ≧8 mm between two consecutive daily examinations, and was confirmed by the subsequent development of a CL [33]. Follicular wave emergence was defined retrospectively as the day when the dominant follicle was first identified at a diameter of 4 or 5 mm. If the dominant follicle was not identified until it reached 6 or 7 mm, the previous day was considered day of the follicular wave emergence. The dominant follicle of a wave was defined as the largest antral follicle of that wave after deviation, and the first subordinate follicle as the second largest antral follicle of that wave. The day of onset of follicular and luteal regression was defined as the first day of an apparent constant decrease in follicular and luteal diameters, respectively.
as §2

N#Cc1ccc(C(c2ccc(C#N)cc2)n2cncn2)cc1 [Letrozole, letrozole]
plasma FSH concentrations compared to controls (plasma FSH): lower
plasma LH concentrations among groups (plasma LH [1]): did not differ
plasma LH concentrations compared to saline-treated controls (plasma LH [2]; 4-day period after single iv dose, P=0.01): higher
plasma LH concentrations compared to saline-treated controls (plasma LH [2]; first 12 hours following single iv dose, P=0.05): higher
duration of elevated LH levels after treatment (plasma LH [2]; single iv dose): at least 4 days
time after letrozole at which endogenous LH began to rise (plasma LH [2]; single iv dose): 2 h
size of the ovulated dominant follicle (DF) (heifers): larger DF
delay of ovulation (heifers; Day 1 to Day 7 of pre-ovulatory wave): 24 h
number of heifers in which the extant dominant follicle ovulated ([3]; high dose 500 μg/kg iv): 5/9
number of heifers in which the extant dominant follicle ovulated ([3]; low dose 125 μg/kg iv): 7/10
number of heifers in which the extant dominant follicle ovulated ([3]; medium dose 250 μg/kg iv): 5/10
dominant follicle diameter profile compared to control heifers ([3]; single iv dose, all dose groups combined (n=29) vs saline controls, P<0.04): larger
diameter to which the dominant follicle grew ([3]; single iv dose, dose groups combined, control 9.7±0.55, mean±SEM): 11.0±0.32 mm
Treatment to onset of regression of extant dominant follicle ([3]; single iv dose, doses combined, n=13, mean±SEM): 8.7 ± 0.47^a days
Treatment to ovulation of extant dominant follicle ([3]; single iv dose, doses combined, n=16, mean±SEM): 9.0 ± 0.42^a days
Treatment to wave emergence ([3]; single iv dose, low-, medium-, high-dose combined, n=29, mean±SEM): 7.5 ± 0.27^a days
